Key:
Scenedesmus = assay: Picolinafen on axenic Scenedesmus culture, total chlorophyll; type: cell-based; conditions: 10-day exposure
Protocol: (§1) A stock solution of 50 micrograms picolinafen/L was prepared from technical grade picolinafen. Axenic algal cultures of Scenedesmus and Ankistrodesmus (green phytoplankton), Pithophora and Oedogonium (filamentous green), and Anabaena, Oscillatoria, and Pseudanabaena (blue-green) were grown. Stock material from these cultures was placed in 250 ml of CLII media (a known, defined algal growth medium). Following the addition of the algae, picolinafen was added to the beakers to achieve concentrations of 0, 1.5, 5, 10, 25, and 50 ppb. Each treatment was replicated three times and beakers were placed in Percival growth chambers that were set at 25° C., with a light intensity of 300 micromoles/square meter/second and a 16:8 photoperiod. The algae were given a 10 to 14 day incubation period, and depending on the growth form of the algae, either total chlorophyll, cell counts, or algal biomass were quantified as end points.

Ankistrodesmus = assay: Picolinafen on axenic Ankistrodesmus culture, cell counts; type: cell-based; conditions: 10-day exposure
Protocol: as §1

Anabaena = assay: Picolinafen on axenic Anabaena culture, total chlorophyll; type: cell-based; conditions: for Total Chl: 10-day exposure
Protocol: as §1

Oscillatoria = assay: Picolinafen on axenic Oscillatoria culture, total chlorophyll; type: cell-based; conditions: 10-day exposure
Protocol: as §1

Oedogonium = assay: Picolinafen on axenic Oedogonium culture, total chlorophyll and biomass; type: cell-based; conditions: 10-day exposure
Protocol: as §1

Spirogyra = assay: Picolinafen on Spirogyra culture, biomass; type: cell-based; conditions: 10-day exposure
Protocol: [The source words this procedure for another organism and reports this organism under the same test.] as §1

[1] = tested on: Pseudanabaena (blue-green); assay: Picolinafen on axenic Pseudanabaena culture, cell counts; type: cell-based; conditions: 10-day exposure
Protocol: as §1

[2] = tested on: Pithophora (filamentous green); assay: Picolinafen on axenic Pithophora culture, biomass; type: cell-based; conditions: 10-day exposure
Protocol: as §1

hydrilla = assay: Impact on growth of hydrilla; type: in vivo; conditions: at levels showing significant control of the algal species
eurasian watermilfoil = assay: Impact on growth of eurasian watermilfoil; type: in vivo; conditions: at levels showing significant control of the algal species
algal species = assay: Algal culture exposure, overall observations; type: cell-based
Protocol: as §1

With `O=C(Nc1ccc(F)cc1)c1cccc(Oc2cccc(C(F)(F)F)c2)n1` [Picolinafen, N-(4-fluorophenyl)-6-[3-(trifluoromethyl)phenoxy]-2-pyridinecarboxamide] the “Total Chl” value (Scenedesmus; 1.5 ppb) was 2427 (119) μg chl/g, the “Total Chl” value (Scenedesmus; 5 ppb) was 87 (16) μg chl/g and the “Total Chl” value (Scenedesmus; 10 ppb) was 15 (6) μg chl/g. The “Total Chl” value (Scenedesmus; 25 ppb) was 17 (8) μg chl/g, the “Total Chl” value (Scenedesmus; 50 ppb) was 12 (6) μg chl/g and the “Cell Count” value (Ankistrodesmus; 1.5 ppb) was 3,025,323 cells/ml. For the same molecule, the “Cell Count” value (Ankistrodesmus; 5 ppb) was 141,246 cells/ml, the “Cell Count” value (Ankistrodesmus; 10 ppb) was 96,622 cells/ml and the “Cell Count” value (Ankistrodesmus; 25 ppb) was 87,012 cells/ml. For the same molecule, the “Cell Count” value (Ankistrodesmus; 50 ppb) was 81,706 cells/ml, the “tolerance of Anabaena compared to other algal species” value (Anabaena) was “highest level of tolerance” and the “Total Chl” value (Anabaena; 1.5 ppb) was 880 μg chl. For the same molecule, the “Total Chl” value (Anabaena; 5 ppb) was 906 μg chl, the “Total Chl” value (Anabaena; 10 ppb) was 685 μg chl and the “Total Chl” value (Anabaena; 25 ppb) was 526 μg chl. For the same molecule, the “Total Chl” value (Anabaena; 50 ppb) was 101 μg chl, the “Total Chl” value (Oscillatoria; 1.5 ppb) was 14 μg chl and the “Total Chl” value (Oscillatoria; 5 ppb) was 10 μg chl. The “Total Chl” value (Oscillatoria; 10 ppb) was 21 μg chl, the “Total Chl” value (Oscillatoria; 25 ppb) was 17 μg chl and the “Total Chl” value (Oscillatoria; 50 ppb) was 13 μg chl. For the same molecule, the Biomass (Oedogonium; 1.5 ppb) was 0.064 mg dry wt./beaker, the “Total Chl” value (Oedogonium; 1.5 ppb) was 1522 μg chl and the Biomass (Oedogonium; 5 ppb) was 0.027 mg dry wt./beaker. The “Total Chl” value (Oedogonium; 5 ppb) was 1057 μg chl, the Biomass (Oedogonium; 10 ppb) was 0.019 mg dry wt./beaker and the “Total Chl” value (Oedogonium; 10 ppb) was 342 μg chl. The Biomass (Oedogonium; 25 ppb) was 0.011 mg dry wt./beaker, the “Total Chl” value (Oedogonium; 25 ppb) was 247 μg chl and the Biomass (Oedogonium; 50 ppb) was 0.005 mg dry wt./beaker. For the same molecule, the “Total Chl” value (Oedogonium; 50 ppb) was 144 μg chl, the Biomass (Spirogyra; 1.5 ppb) was 16.2 mg dry wt./beaker and the Biomass (Spirogyra; 5 ppb) was 6.9 mg dry wt./beaker. It also gave a Biomass (Spirogyra; 10 ppb) of 3.0 mg dry wt./beaker, a Biomass (Spirogyra; 25 ppb) of 3.8 mg dry wt./beaker and a Biomass (Spirogyra; 50 ppb) of 3.3 mg dry wt./beaker. The “Cell Count” value ([1]; 1.5 ppb) was 2,344 cells/ml, the “Cell Count” value ([1]; 5 ppb) was 89 cells/ml and the “Cell Count” value ([1]; 10 ppb) was 52 cells/ml. The “Cell Count” value ([1]; 25 ppb) was 98 cells/ml, the “Cell Count” value ([1]; 50 ppb) was 77 cells/ml and the Biomass ([2]; 1.5 ppb) was 26.2 mg dry wt./beaker. It also gave a Biomass ([2]; 5 ppb) of 19.1 mg dry wt./beaker, a Biomass ([2]; 10 ppb) of 20.4 mg dry wt./beaker and a Biomass ([2]; 25 ppb) of 14.8 mg dry wt./beaker. The Biomass ([2]; 50 ppb) was 11.4 mg dry wt./beaker, the “impact upon the growth of hydrilla” value (hydrilla) was “substantially no impact” and the “impact upon the growth of eurasian watermilfoil” value (eurasian watermilfoil) was “substantially no impact”. The “sensitivity of most algal species” value (algal species; concentrations of 10 ppb and less) was “highly sensitive”, the “time to bleaching (visual observations)” value (algal species; some of the test species) was no more than 12 h and the “algacidal versus herbicidal activity in the aquatic environment” value (algal species; two aquatic macrophyte species compared with various algal species) was “greater algacidal than herbicidal activity”.

From patent US20130102638A1, “METHODS AND COMPOSITIONS FOR CONTROLLING ALGAE” (priority 2002, published 2013)
